The test system of data set [1] is platinum-sensitive recurrent ovarian cancer. The settings on record: cited from earlier work; for PFS HR: p <0.0001.
The subject of data set [2] is relapsed platinum-sensitive epithelial ovarian cancer. The data set can be described thus: Randomized, open-label phase II clinical trial, DC vaccine added to carboplatin and gemcitabine vs chemotherapy alone. The data set is classed as in vivo, human. The settings on record: ITT population, N = 32 per group. The text has this:
An interim analysis was first performed, followed later by the final analysis.
A total of 6, 8, or 10 cycles of standard of care chemotherapy were to be completed by patients in both treatment groups as per investigators' decision (FIG. 4).

The test system of data set [3] is newly diagnosed epithelial ovarian carcinoma. As for the experimental part: The study was conducted as an open label, multicenter phase II clinical trial in women with newly diagnosed epithelial ovarian carcinoma who have undergone debulking surgery.
The planned number of chemotherapy cycles was 6 in all treatment groups (FIG. 1).
Results were calculated either by using as beginning of the trial period the time of first treatment or the time of randomization. Two pre-planned per protocol interim analyses of PFS and OS were performed first at 6 months and second at 12 months after the last dose of standard of care chemotherapy of the last enrolled patient. […]

Data set [4] relates to metastatic stage IV non-small cell lung cancer (NSCLC). The data set can be described thus: Open label, multicenter phase II clinical trial, DCVAC/LuCa + carboplatin and paclitaxel vs carboplatin and paclitaxel alone. The data set is classed as in vivo, human. The settings on record: PP population; interim analysis of PFS. As for the experimental part: The purpose of the study is to compare efficacy of DCVAC/LuCa+chemotherapy (carboplatin and paclitaxel) vs. carboplatin and paclitaxel alone in patients with stage IV NSCLC, as measured by OS and progression free survival (PFS). PFS was measured based on radiological assessments according to the RECIST (Response Evaluation Criteria in Solid Tumors) guidelines (version 1.1) (Eisenhauer et al. 2009).
The planned number of chemotherapy cycles was 4-6 in all treatment groups (FIG. 7).

[5] abbreviates: group A: after the start of DC vaccine treatment, group B: shorter reporting time period.

Where two headings read alike, the source gives them in different places. Marks after values point to notes of the source that are not given here.

As for Bevacizumab, the “OS HR” value in data set [1] (bevacizumab 15 mg/kg IV q3w + carboplatin AUC4 + gemcitabine, p 0.6479) is reported as 0.952^c; in data set [1] (bevacizumab 15 mg/kg IV q3w + carboplatin AUC4 + gemcitabine, p 0.6479, listed as bevacizumab) it was 0.952; in data set [1] (bevacizumab 15 mg/kg IV q3w + carboplatin AUC5 + paclitaxel, p 0.0447), 0.823^c; in data set [1] (bevacizumab 15 mg/kg IV q3w + carboplatin AUC5 + paclitaxel, p 0.0447, listed as bevacizumab), 0.823. For the same substance, the entries for the “PFS HR” value in data set [1] (bevacizumab 15 mg/kg IV q3w + carboplatin AUC4 + gemcitabine) and in data set [1] (bevacizumab 15 mg/kg IV q3w + carboplatin AUC5 + paclitaxel) were 0.48^c and 0.613^c, respectively.
As for carboplatin and gemcitabine, the “No. of 2nd-line chemotherapy non-responders: n (%)” value in data set [2] was 0 (0.00%) n (%).
On to carboplatin and paclitaxel, for which the “No. of 1st-line chemotherapy non-responders: n (%)” value in data set [3] (ITT population, N = 31 per group) was 0 (0.00%) n (%). In data set [3] (setting [5]), the “Number of SAEs reported” value stood at 14 and the “Number of patients in whom SAEs were reported” value amounted to 9. The “Progression of the lung cancer disease” value in data set [4] was “progressed for all patients”.

The values are drawn from patent publication US20250235467A1, “DENDRITIC CELL VACCINATION IN PARALLEL TO CHEMOTHERAPY” (priority 2018, published 2025).
